In patent publication US10377770B2 (Novartis AG, priority 2015, dated 2019):
pIC50: −log10 of the molar value.

The compounds below were run against C-Raf FL (full length CRAF with Y340E and Y341E activating mutations, co-expressed with h14-3-3 zeta) (Homo sapiens (Human), UniProt P04049, Y340E/Y341E) (assay: In vitro Raf activity determination, AlphaScreen p-MEK readout, c-Raf (C-Raf FL)). Conditions: c-Raf approximately 4 nM, ATP 1 μM, pre-incubation 60 minutes, reaction 1 hour.
Format: biochemical
In short: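 Full-length C-Raf (~4 nM) pre-incubated 60 min at room temperature with compound and kinase-dead biotinylated MEK1 (~10 nM) in Tris pH 7.5, 15 mM MgCl2, BSA, DTT. Reaction started with 1 μM ATP and run 1 h at room temperature. Phospho-MEK detected by AlphaScreen with anti-p-MEK antibody.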

C-Raf FL (full length CRAF with Y340E and Y341E activating mutations, co-expressed with h14-3-3 zeta), sequence (P04049 whole entry Y340E/Y341E): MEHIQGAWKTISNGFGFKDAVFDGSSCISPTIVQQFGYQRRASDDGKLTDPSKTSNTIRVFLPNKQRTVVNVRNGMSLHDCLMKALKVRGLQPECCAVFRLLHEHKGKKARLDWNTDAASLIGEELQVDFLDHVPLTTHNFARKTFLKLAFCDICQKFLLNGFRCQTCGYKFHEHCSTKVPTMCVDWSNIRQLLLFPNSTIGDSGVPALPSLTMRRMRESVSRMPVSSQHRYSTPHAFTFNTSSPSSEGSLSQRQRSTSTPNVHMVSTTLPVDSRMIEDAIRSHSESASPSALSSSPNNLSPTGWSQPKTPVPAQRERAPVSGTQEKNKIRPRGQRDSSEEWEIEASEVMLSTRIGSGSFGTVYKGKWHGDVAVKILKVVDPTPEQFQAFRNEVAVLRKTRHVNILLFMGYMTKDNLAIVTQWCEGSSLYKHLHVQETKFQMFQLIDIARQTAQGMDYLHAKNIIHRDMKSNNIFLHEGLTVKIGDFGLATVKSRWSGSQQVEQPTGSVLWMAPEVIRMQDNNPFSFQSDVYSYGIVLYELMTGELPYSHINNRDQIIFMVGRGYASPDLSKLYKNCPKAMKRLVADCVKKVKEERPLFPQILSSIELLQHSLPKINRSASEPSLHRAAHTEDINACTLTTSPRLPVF
C-Raf FL (full length CRAF with Y340E and Y341E activating mutations, co-expressed with h14-3-3 zeta), sequence (P63104 whole entry partner): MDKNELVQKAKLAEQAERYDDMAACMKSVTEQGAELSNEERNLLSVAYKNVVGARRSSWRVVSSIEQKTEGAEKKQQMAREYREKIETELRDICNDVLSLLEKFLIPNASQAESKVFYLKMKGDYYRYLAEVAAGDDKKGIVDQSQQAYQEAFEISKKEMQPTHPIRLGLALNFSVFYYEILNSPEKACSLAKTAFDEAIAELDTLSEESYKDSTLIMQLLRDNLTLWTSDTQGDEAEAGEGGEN

First: Cc1ccc(NC(=O)c2ccnc(C(C)(F)F)c2)cc1-c1cc2c(nn1)OC(C)(C)C1COCCN21 (racemic) [Example 136, rac-2-(1,1-Difluoroethyl)-N-(3-(6,6-dimethyl-6a,7,9,10-tetrahydro-6H-[1,4]oxazino[4,3-d]pyridazino[3,4-b][1,4]oxazin-2-yl)-4-methylphenyl)isonicotinamide]
Second: Cc1ccc(NC(=O)c2ccnc(C(C)(F)F)c2)cc1-c1cc(F)c2c(c1)N1CCOC[C@H]1[C@](F)(CO)C2 [Example 420, N-(3-((4aS,5S)-5,7-difluoro-5-(hydroxymethyl)-1,2,4,4a,5,6-hexahydro-[1,4]oxazino[4,3-a]quinolin-9-yl)-4-methylphenyl)-2-(1,1-difluoroethyl)isonicotinamide]
The pIC50 of the first is 1.52 log units higher: 10.74 for the first, 9.22 for the second.

Compared with `Cc1ccc(NC(=O)c2ccnc(C(C)(F)F)c2)cc1-c1cnc2c(c1)N1CCOC[C@H]1[C@@](C#N)(CF)C2` [Example 515, N-(3-((4aR,5S)-5-cyano-5-(fluoromethyl)-1,2,4,4a,5,6-hexahydro-[1,4]oxazino[4,3-a][1,5]naphthyridin-9-yl)-4-methylphenyl)-2-(1,1-difluoroethyl)iso-nicotinamide], `Cc1ccc(NC(=O)c2ccnc(C(C)(F)F)c2)cc1-c1ccc2c(c1)N1CCOC[C@@H]1[C@](F)(CO)C2` [Example 372, 2-(1,1-difluoroethyl)-N-(3-((4aR,5S)-5-fluoro-5-(hydroxymethyl)-1,2,4,4a,5,6-hexahydro-[1,4]oxazino[4,3-a]quinolin-9-yl)-4-methylphenyl)isonicotinamide] is 0.48 log units lower in pIC50: 10.00 for the first, 9.52 for the second.

`CCN1C(=O)C2CCOCCC2c2cc(-c3cc(NC(=O)c4ccnc(C(C)(C)F)c4)cnc3C)cnc21` (stereo not drawn) [Example 251, N-(5-((5a, 11b- trans)-7-ethyl-6-oxo-1,2,4,5,5a, 6,7,11b-octahydrooxepino [4,5-c[1,8]naphtliyridin-10-yl)-6-methylpyridin-3-yl)-2-(2-fluoropropan-2-yl)isonicotinamide] and `CCN1C(=O)C2CCOCCC2c2cc(-c3cc(NC(=O)c4ccnc(C(F)(F)F)c4)ccc3C)cnc21` (stereo not drawn) [Example 247, N-(3-((5a, 11b-cis)-7-ethyl-6-oxo-1,2,4,5,5a,6,7,11b-octahydrooxepino 4,5-c][1,8]naphthyridin-10-yl)-4-methylphenyl)-2-(trifluoromethyl) isonicotinamide] are within 0.2 log units of each other in pIC50: 9.70 for the first, 9.52 for the second.

First: Cc1ncc(NC(=O)c2cccc(C(F)(F)F)c2)cc1-c1cnc2c(c1)N1CCOCCC1CC(=O)N2CCO (stereo not shown) [Example 319, N-(5-(8-(2-hydroxyethyl)-7-oxo-1,2,4,5,5a,6,7,8-octahydropyrido[3′, 2′:2,3][1,4]diazepino [1,7-d][1,4]oxazepin-11-yl)-6-methylpyridin-3-yl)-3-(trifluoromethyl) benzamide]
Second: Cc1ncc(NC(=O)c2cccc(C(F)(F)F)c2)cc1-c1cnc2c(c1)C1(C)CCOCCC1C(=O)N2CCO (single isomer, unassigned) [Example 359, N-(5-((5a,11b-trans)-7-(2-hydroxyethyl)-11b-methyl-6-oxo-1,2,4,5,5 a,6,7,11b-octahydrooxepino[4,5-c][1,8]naphthyridin-10-yl)-6-methylpyridin-3-yl)-3-(trifluoromethyl)benzamide]
The pIC50 of the first is 0.86 log units lower: 8.66 for the first, 9.52 for the second.

Compared with `Cc1ccc(NC(=O)c2ccnc(C(F)(F)F)c2)cc1-c1ccc2c(c1)N1CCOCC1C(CO)(CO)C2` (racemic) [Example 49, (rac)-N-(3-(5,5-bis(hydroxymethyl)-1,2,4,4a,5,6-hexahydro-[1,4]oxazino[4,3-a]quinolin-9-yl)-4-methylphenyl)-2-(trifluoromethyl)isonicotinamide], `Cc1ccc(NC(=O)c2ccnc(C(C)(F)F)c2)cc1-c1ccc2c(c1)N1CCOC[C@@H]1[C@@](CO)(CF)C2` [Example 407, 2-(1,1-difluoroethyl)-N-(3-((4aS,5S)-5-(fluoromethyl)-5-(hydroxymethyl)-1,2,4,4a,5,6-hexahydro-[1,4]oxazino[4,3-a]quinolin-9-yl)-4-methylphenyl)isonicotinamide] is 0.68 log units lower in pIC50: 10.68 for the first, 10.00 for the second.

Compared with `Cc1ccc(NC(=O)c2ccnc(C(C)(F)F)c2)cc1-c1cnc2c(c1)N1CCOC[C@@H]1C[C@@H]2O` [Example 109, 2-(1,1-difluoroethyl)-N-(3-((4aS,6S)-6-hydroxy-1,2,4,4a,5,6-hexahydro-[1,4]oxazino[4,3-a][1,5]naphthyridin-n-9-yl)-4-methylphenyl)isonicotinamide], `Cc1ccc(NC(=O)c2ccnc(C(C)(F)F)c2)cc1-c1cnc2c(c1)N1CCOC[C@H]1C[C@H]2O` [Example 108, 2-(1,1-Difluoroethyl)-N-(3-((4aR,6R)-6-hydroxy-1,2,4,4a,5,6-hexahydro-[1,4]oxazino[4,3-a][1,5]naphthyridin-n-9-yl)-4-methylphenyl)isonicotinamide] is 0.35 log units lower in pIC50: 11.24 for the first, 10.89 for the second.

Compared with `Cc1ccc(NC(=O)c2ccnc(C(F)(F)F)c2)cc1-c1ccc2c(c1)N1CCOCC1C(CS(C)(=O)=O)C2` (racemic) [Example 363, (rac)-N-(4-methyl-3-(5-((methylsulfonyl)methyl)-1,2,4,4a,5,6-hexahydro-[1,4]oxazino[4,3-a]quinolin-9-yl)phenyl)-2-(trifluoromethyl)isonicotinamide], `COC1CC2COCCN2c2cc(-c3cc(NC(=O)c4ccnc(C(F)(F)F)c4)ccc3C)cnc21` (racemic) [Example 34] is 1.06 log units higher in pIC50: 10.00 for the first, 11.06 for the second. The second is the more potent here.

Compared with `CCN1C(=O)[C@@H]2COCC[C@@]2(C)c2cc(-c3cc(NC(=O)c4ccnc(C(F)(F)F)c4)ccc3C)cnc21` (relative stereo) [Example 341, N-(3-((4a,10b-trans)-6-ethyl-10b-methyl-5-oxo-2,4,4a,5,6,10b-hexahydro-1H-pyrano[3,4-c][1,8]naphthyridin-9-yl)-4-methylphenyl)-2-(trifluoromethyl)isonicotinamide], `CCN1C(=O)[C@H]2[C@@H]3COC[C@@H]3[C@H]2c2cc(-c3cc(NC(=O)c4ccnc(C(F)(F)F)c4)ccc3C)cnc21` (racemic) [Example 362] is 0.48 log units higher in pIC50: 9.22 for the first, 9.70 for the second.

Going from `Cc1ccc(NC(=O)c2ccnc(C(C)(F)F)c2)cc1-c1cnc2c(c1)[C@@H]1CCOC[C@H]1C(=O)N2C(C)C` [Example 263, 2-(1,1-difluoroethyl)-N-(3-((4aS, 10bR)-6-isopropyl-5-oxo-2,4,4a,5,6,10b-hexahydro-1H-pyrano[3,4-c][1,8]naphthyridin-9-yl)-4-methylphenyl) isonicotinamide] to `CC(=O)N[C@H]1c2ncc(-c3cc(NC(=O)c4ccnc(C(F)(F)F)c4)ccc3C)cc2N2CCOC[C@H]2C1(C)C` [Example 529, N-(3-((4aR,6R)-6-acetamido-5,5-dimethyl-1,2,4,4a,5,6-hexahydro-[1,4]oxazino[4,3-a][1,5]naphthyridin-9-yl)-4-methylphenyl)-2-(trifluoromethyl)isonicotinamide], the pIC50 falls from 9.52 to 8.64 (0.88 log units). The first is the more potent here.

`Cc1ccc(NC(=O)c2ccnc(C(C)(C)C#N)c2)cc1-c1ccc2c(c1)N1CCOC[C@@H]1[C@](F)(CO)C2` [Example 401, 2-(2-cyanopropan-2-yl)-N-(3-((4aR,5S)-5-fluoro-5-(hydroxymethyl)-1,2,4,4a,5,6-hexahydro-[1,4]oxazino[4,3-a]quinolin-9-yl)-4-methylphenyl)isonicotinamide] was tested, and the pIC50 was 9.52.
